Experimental findings from publication PMC7958344, “Development of Novel Inhibitors Targeting the D-Box of the DNA Binding Domain of Androgen Receptor” (International Journal of Molecular Sciences, 2021) are described below.

One series has as its target T1, AR-V7 (Homo sapiens, UniProt P10275).
T1 construct: expressed in transfected cells
T1 sequence (P10275 1-644 isoform P10275-3): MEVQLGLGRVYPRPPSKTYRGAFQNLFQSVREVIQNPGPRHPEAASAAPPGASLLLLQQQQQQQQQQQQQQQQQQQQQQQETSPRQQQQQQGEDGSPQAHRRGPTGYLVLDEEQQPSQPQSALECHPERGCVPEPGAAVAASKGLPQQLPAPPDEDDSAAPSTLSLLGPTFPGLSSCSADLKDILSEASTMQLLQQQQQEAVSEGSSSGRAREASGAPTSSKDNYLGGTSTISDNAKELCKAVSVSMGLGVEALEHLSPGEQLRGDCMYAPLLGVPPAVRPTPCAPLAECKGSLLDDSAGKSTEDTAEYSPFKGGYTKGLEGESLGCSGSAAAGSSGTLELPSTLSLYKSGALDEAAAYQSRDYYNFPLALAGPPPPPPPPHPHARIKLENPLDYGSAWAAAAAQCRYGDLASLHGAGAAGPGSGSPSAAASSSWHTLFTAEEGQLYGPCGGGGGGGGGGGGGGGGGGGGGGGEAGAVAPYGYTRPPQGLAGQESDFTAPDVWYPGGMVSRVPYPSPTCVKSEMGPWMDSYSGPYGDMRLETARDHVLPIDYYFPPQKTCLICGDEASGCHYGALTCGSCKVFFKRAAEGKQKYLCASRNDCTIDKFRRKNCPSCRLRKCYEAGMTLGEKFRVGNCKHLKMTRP
The series is described as follows: AR-V7 transcriptional activity, doxycycline-inducible AR-V7 with ARR3tk-nanoLuciferase reporter in PC3 cells. It counts as cell-based. To be noted: for IC50: PC3 doxycycline-inducible AR-V7, ARR3tk-nanoLuciferase reporter, read-out: IC50 for the inhibition of the AR-V7 transcription; for inhibition at 10 µM: PC-3, Supplementary Table 1, read-out: Inhibition Dox-V7 (10 μM). The text has this:
Compounds were first screened for their inhibition of AR-V7 transcriptional activity. To do so, we created a PC3 cell-based population that stably encodes (i) a doxycycline-inducible AR-V7 cDNA sequence (pLIX402 tet-inducible promoter, puromycin selection), and (ii) the ARR3tk-nanoLuciferase reporter construct. […] This allowed the screening of the compounds without using the error-prone method of transiently transfecting V7 and reporter constructs. The inhibition efficacy of compounds was measured using doxycycline treatment along with an increasing dose of compounds. From this screen, a panel of compounds was identified with some anti-dimerization activity (Supplementary Table S1). […] To rule out direct effects of the compounds on luciferase expression or PC3 cell viability, we used a PC3-dox inducible luciferase cell line in parallel.
LNCaP cells incorporating an AR2PB-eGFP reporter construct (2 × probasin) are previously described. eGFP and secreted PSA assays were performed as described. The mammalian two-hybrid assay was performed in PC3 cells by co-transfection of 15 ng pA-AR or pB-AR plasmids, with 12.5 ng PG5-NLuc reporter. PC3_iV7_3TKNluc or PC3_iNluc cells were seeded in DMEM +5% CSS at 5000 cells/well for 24 h, followed by adding doxycycline/compounds (18 h) and luminescence measurement. LNCaP and 22rv1 cells were starved in RPMI + CSS (48 h) before cell viability tests using the same conditions as above, followed by 30 μL/well PrestoBlue™ Reagent (1 h) and fluorescence measurement (TECAN F200).
(In general: In a reporter assay the amount or activity of a reporter protein is the signal.)

In a further series the test system is PC3 cell line. Briefly: Activity in the PC3 cell line. It counts as cell-based. Particulars: off-target effects; result in words.

As usually defined, the IC50 is the concentration that gives 50% inhibition. The term inhibition denotes how much of the control response was suppressed. Turning to `O=C(NCc1cccc2ccccc12)NCC(O)(c1cccs1)c1cccs1` [VPC-17160], at AR-V7, the IC50 worked out at 6 µM and the inhibition at 10 µM came to 70%. Besides, in the series with PC3 cell line, the “effect on the PC3 cell line” value is reported as “no effect”.
For `CC(O)(CNC(=O)C=Cc1ccnc2ccccc12)c1ccsc1` (stereo not drawn) [VPC-17281], in that order: 6 µM, 70% and “some activity”.
